Like-named read-outs stand apart in the source and are kept apart here.
Legend:
[1] = Aggregation study: UV-Vis spectra before and after 0.22 μm filtration; type: physicochemical; settings: DMSO stock diluted with saline, 4 hours at room temperature, 0.22 μm disc filter
Description: The drug concentration was […]. The sample was left for 4 hours at room temperature. UV-visible absorbance spectra of the solution before and after filtration (employing a 0.22 μm disc filter) were measured.
The formulations were placed in an ultrasonic bath at elevated temperature (40° C.) for 6 hours. After cooling to room temperature, UV-Vis spectra were measured for unfiltered solutions as well as for the solutions after filtration using a 0.22 μm disc filter.

[2] = Dissolved fraction in gamma-cyclodextrin solution, filtered vs unfiltered absorbance at 300 nm; type: physicochemical; settings: for bazedoxifene acetate dissolved: sonicated at 40° C. for 6 hours
Description: 1.2 mL of a 40 mg/mL solution of GCD in distilled water was added into the microtube. The solution was sonicated at 40° C. for 6 hours. […] The concentration of GCD remained the same in all solutions, specifically 40 mg/mL.
Aliquots of the solutions were filtered through a 0.22 μm disc filter.
1.5 mL of a 40 mg/mL solution of gamma-cyclodextrin in saline was added into the microtube. The solution was sonicated at 40° C. for 6 hours. […] The concentration of gamma-cyclodextrin remained the same in all solutions, specifically 40 mg/mL.
1.2 mL of a 40 mg/mL solution of GCD in phosphate-buffered saline was added into the microtube. The solution was sonicated at 40° C. for 6 hours. […] The concentration of GCD remained the same in all solutions, specifically. 40 mg/ml.
The resulting mixture was ground for 20 minutes at a set grinding speed of 1000 rpm and a grinding temperature of 37° C.
20 mg of the ground mixture was weighed into a microtube and combined with 0.5 mL distilled water. The sample was then sonicated for 5 minutes at 45° C.
An aliquot of the sonicated solution was filtered through a 0.22 μm disc filter.

[3] = rats, bazedoxifene acetate in SBECD
[4] = healthy volunteers, inhalation of BAZE-X1 1.13 mg
[5] = clinical; settings: both, human, in vivo, inhaled or intranasal, 1.13 mg

SMILES | absorbance features of the drug after filtration (aggregation) [1] | bazedoxifene acetate dissolved ([2]; 40 mg/mL GCD in distilled water) [%] | bazedoxifene acetate dissolved ([2]; 40 mg/mL GCD in phosphate-buffered saline) [%] | bazedoxifene acetate dissolved ([2]; 40 mg/mL gamma-cyclodextrin in saline) [%] | starting bazedoxifene dissolved ([2]; mixture ground with GCD (50 mg:250 mg), 20 mg in 0.5 mL distilled water, sonicated 5 minutes at 45° C.) [%] | pathological lesions in the lungs and trachea ([3]; single intranasal 0.5 mg/kg) | pathological lesions in the lungs and trachea ([3]; single intravenous 0.5 mg/kg) | plasma levels (pg/mL) and AUC values (h·pg/mL) [4] | time to maximum plasma concentration ([4]; first measurement) [min] | half-life [5] [h]
Cc1c(-c2ccc(O)cc2)n(Cc2ccc(OCCN3CCCCCC3)cc2)c2ccc(O)cc12 [bazedoxifene acetate] | sharp decrease in absorbance features | 97 | 95 | 92 | – | – | – | – | – | –
Cc1c(-c2ccc(O)cc2)n(Cc2ccc(OCCN3CCCCCC3)cc2)c2ccc(O)cc12 [bazedoxifene] | – | – | – | – | 99 | did not cause pathological lesions | did not cause pathological lesions | very low, in majority near the limit of quantitation | 10 | 21

— US20240350511A1, “TREATMENT OF COVID-19” (priority 2021, published 2024)
